According to patent US9801850B2, “Antibacterial agent” (OSAKA UNIVERSITY, priority 2009, dated 2017):

Columns and labels:
[1] = tested on: MSSA clinical isolate No. 5; test: MIC, broth microdilution (Example 2, Table 6); assay type: cell-based, Staphylococcus aureus
MSSA ATCC25923 = test: MIC, broth microdilution (Example 2, Table 6); assay type: cell-based, Staphylococcus aureus
Candida krusei ATCC6258 = test: MIC with respect to fungi, broth microdilution (Table 8); assay type: cell-based; conditions: RPMI1640/MOPS (pH 7.0), 35° C., 24 to 48 hours
Protocol: (§1) Regarding the respective type strains shown in Tables 7 and 8 below, the MIC measurement was performed using the antibacterial agent solutions of Example 2 in the same manner as described in Section (2) of Example 1, except for the following. The antibacterial agent solutions were prepared by dissolving the EGCG derivatives of Example 2 in 100% DMSO and then diluting the resultant mixtures with sterile distilled water. The respective strains were derived from ATCC or NCTC. As Moraxella catarrhalis and Aspergillus fumigatus, clinical isolates thereof without an acquired resistance mechanism were used. For nutrient-rich bacteria, namely, Streptococcus pneumoniae ATCC49619, Streptococcus pyogenes ATCC19615, Streptococcus agalactiae ATCC13813, Moraxella catarrhalis, and Haemophilis influenzae ATCC49766, Strepto Haemo supplement (Eiken Chemical Co., Ltd.) was added to media for culturing them. The MIC measurement with respect to fungi was carried out by a broth microdilution method using a RPMI1640/MOPS (pH 7.0) medium in accordance with CLSI guidelines. About 2×10^3 cells/ml of fungi were inoculated to the medium. After the culture at 35° C. for 24 to 48 hours, the MIC was determined. Also, regarding the antibacterial agent solution of Comparative Example 2, the MIC was measured in the same manner.

[2] = tested on: Cryptococcus neoformans ATCC90112; test: as above; assay type: cell-based; conditions: RPMI1640/MOPS (pH 7.0), 35° C., 24 to 48 hours
Protocol: as §1

Aspergillus fumigatus = test: as above; assay type: cell-based; conditions: Aspergillus fumigatus clinical isolate; RPMI1640/MOPS (pH 7.0), 35° C., 24 to 48 hours
Protocol: as §1

[3] = tested on: Candida parapsilosis ATCC22019; test: as above; assay type: cell-based; conditions: RPMI1640/MOPS (pH 7.0), 35° C., 24 to 48 hours
Protocol: as §1

[4] = tested on: Candida tropicalis ATCC750; test: as above; assay type: cell-based; conditions: RPMI1640/MOPS (pH 7.0), 35° C., 24 to 48 hours
Protocol: as §1

[5] = tested on: Candida glabrata ATCC90030; test: as above; assay type: cell-based; conditions: RPMI1640/MOPS (pH 7.0), 35° C., 24 to 48 hours
Protocol: as §1

[6] = tested on: Candida albicans ATCC24433; test: as above; assay type: cell-based; conditions: RPMI1640/MOPS (pH 7.0), 35° C., 24 to 48 hours
Protocol: as §1

[7] = tested on: MRSA clinical isolate No. 9; test: MIC, broth microdilution (Example 2, Table 6); assay type: cell-based, Staphylococcus aureus
[8] = tested on: MRSA clinical isolate No. 11; test: MIC, broth microdilution (Example 2, Table 6); assay type: cell-based, Staphylococcus aureus
MSSA ATCC12600 = test: MIC, broth microdilution (Example 2, Table 6); assay type: cell-based, Staphylococcus aureus
[9] = tested on: MRSA clinical isolate No. 8; test: MIC, broth microdilution (Example 2, Table 6); assay type: cell-based, Staphylococcus aureus
[10] = tested on: Staphylococcus aureus ATCC43300 (MRSA); test: Antibacterial spectrum MIC (Table 7); assay type: cell-based
Protocol: (§2) Methicillin-susceptible Staphylococcus aureus (MSSA) NCTC8325 and methicillin-resistant Staphylococcus aureus (MRSA) ATCC43300 were used as bacteria. The bacteria of each type were cultured using Mueller-Hinton Broth (MH-broth, Difco) as a medium. Then, the minimum inhibitory concentration (MIC) of each of the EGCG derivatives was measured by a broth microdilution method in accordance with the Clinical and Laboratory Standards Institute (CLSI) guidelines (hereinafter the same).
(§3) First, each of the EGCG derivatives was dissolved in 100% dimethyl sulfoxide (DMSO, Wako Pure Chemical Industries, Ltd.) so that the concentration thereof became 5120 μg/ml. The resultant solution was diluted with DMSO or sterile distilled water so as to prepare two-fold dilution series of antibacterial agent solutions. […] Each of these antibacterial agent solutions was dispensed to wells of a 96-well plate. The concentration of the EGCG derivative in the antibacterial agent solution dispensed to the wells was set to be 10 times as high as the final concentration. On the other hand, the bacteria were cultured in the MH-broth at 37° C. overnight, and the thus-obtained pre-culture solution was diluted with a new MH-broth so that the concentration thereof in the MH-broth became 10^−4 (10^4-fold dilution), thus preparing a bacterial culture solution of about 1×10^5 CFU/ml (CFU: Colony Forming Unit, the number of viable cells). The bacterial culture solution was further added to each well, and the mixture was cultured at 37° C. for 18 hours. The ratio (volume ratio) between the antibacterial agent solution and the bacterial culture solution added to each well was set to 1:9 (the antibacterial agent solution:the bacterial culture solution), and the volume of the mixture of them per well was set to 100 μl in total. The final concentration of the EGCG derivative in the mixture was set to 8 μg/ml to 512 μg/ml, and the number of viable cells in the mixture was set to about 1×10^5 CFU/ml. Then, after the completion of the culture, the MIC was determined. Also, the turbidity (OD600 nm) was measured using a plate reader so as to identify minor differences.
as §1

[11] = tested on: Streptococcus agalactiae ATCC13813; test: Antibacterial spectrum MIC (Table 7); assay type: cell-based; conditions: Strepto Haemo supplement
Protocol: as §2, §3, §1

[12] = tested on: Neisseria gonorrhoeae ATCC49226; test: Antibacterial spectrum MIC (Table 7); assay type: cell-based
Protocol: as §2, §3, §1

[13] = tested on: Staphylococcus aureus NCTC8325; test: Antibacterial spectrum MIC (Table 7); assay type: cell-based
Protocol: as §2, §3, §1

[14] = tested on: Micrococcus lutus ATCC9341; test: Antibacterial spectrum MIC (Table 7); assay type: cell-based
Protocol: as §2, §3, §1

[15] = tested on: Haemophilis influenzae ATCC49766; test: Antibacterial spectrum MIC (Table 7); assay type: cell-based; conditions: Strepto Haemo supplement
Protocol: as §2, §3, §1

[16] = tested on: Bacillus cereus ATCC14579; test: Antibacterial spectrum MIC (Table 7); assay type: cell-based
Protocol: as §2, §3, §1

[17] = tested on: Stenotrophomonas maltophilia ATCC13637; test: Antibacterial spectrum MIC (Table 7); assay type: cell-based
Protocol: as §2, §3, §1

[18] = tested on: MRSA clinical isolate No. 12; test: MIC, broth microdilution (Example 2, Table 6); assay type: cell-based, Staphylococcus aureus
[19] = tested on: MSSA clinical isolate No. 2; test: MIC, broth microdilution (Example 2, Table 6); assay type: cell-based, Staphylococcus aureus
[20] = tested on: MRSA clinical isolate No. 10; test: MIC, broth microdilution (Example 2, Table 6); assay type: cell-based, Staphylococcus aureus
MSSA ATCC29213 = test: MIC, broth microdilution (Example 2, Table 6); assay type: cell-based, Staphylococcus aureus
[21] = tested on: MSSA clinical isolate No. 4; test: MIC, broth microdilution (Example 2, Table 6); assay type: cell-based, Staphylococcus aureus

Substance | MIC [1] | MIC (MSSA ATCC25923) | MIC (Candida krusei ATCC6258) | MIC [2] | MIC (Aspergillus fumigatus) | MIC [3] | MIC [4] | MIC [5] | MIC [6] | MIC [7] | MIC [8] | MIC (MSSA ATCC12600) | MIC [9] | MIC [10] | MIC [11] | MIC [12] | MIC [13] | MIC [14] | MIC [15] | MIC [16] | further results
EGCG-dioctanoate [EGCG-C8×2] | 16 µg/mL | 16 µg/mL | 16 µg/mL | 16 µg/mL | 32 µg/mL | 16 µg/mL | 32 µg/mL | 16 µg/mL | 32 µg/mL | 16 µg/mL | 32 µg/mL | 8 µg/mL | 4 µg/mL | 64 µg/mL | 64 µg/mL | 16 µg/mL | 16 µg/mL | 64 µg/mL | 16 µg/mL | 16 µg/mL | MIC [17]: 32 µg/mL; MIC [18]: 16 µg/mL; MIC [19]: 16 µg/mL; MIC [20]: 16 µg/mL; MIC (MSSA ATCC29213): 16 µg/mL; MIC [21]: 16 µg/mL
EGCG-oleate [EGCG-C18E] | 32 µg/mL | 32 µg/mL | 16 µg/mL | 16 µg/mL | 32 µg/mL | 16 µg/mL | 32 µg/mL | 16 µg/mL | 16 µg/mL | 64 µg/mL | 64 µg/mL | 32 µg/mL | 8 µg/mL | 64 µg/mL | >64 µg/mL | 16 µg/mL | 32 µg/mL | 64 µg/mL | 16 µg/mL | 32 µg/mL | MIC [17]: 32 µg/mL; MIC [18]: 32 µg/mL; MIC [19]: 32 µg/mL; MIC [20]: 16 µg/mL; MIC (MSSA ATCC29213): 32 µg/mL; MIC [21]: 32 µg/mL
EGCG-palmitate [EGCG-C16] | 16 µg/mL | 16 µg/mL | 16 µg/mL | 8 µg/mL | 32 µg/mL | 16 µg/mL | 32 µg/mL | 16 µg/mL | 32 µg/mL | 32 µg/mL | 32 µg/mL | 16 µg/mL | 8 µg/mL | 32 µg/mL | >64 µg/mL | 16 µg/mL | 16 µg/mL | 64 µg/mL | 16 µg/mL | 16 µg/mL | MIC [17]: 32 µg/mL; MIC [18]: 16 µg/mL; MIC [19]: 16 µg/mL; MIC [20]: 16 µg/mL; MIC (MSSA ATCC29213): 16 µg/mL; MIC [21]: 16 µg/mL
EGCG-palmitoleate [EGCG-C16E] | 16 µg/mL | 32 µg/mL | 16 µg/mL | 8 µg/mL | 16 µg/mL | 16 µg/mL | 16 µg/mL | 16 µg/mL | 16 µg/mL | 64 µg/mL | 64 µg/mL | 16 µg/mL | 8 µg/mL | 64 µg/mL | >64 µg/mL | 16 µg/mL | 16 µg/mL | 64 µg/mL | 16 µg/mL | 16 µg/mL | MIC [17]: 32 µg/mL; MIC [18]: 16 µg/mL; MIC [19]: 16 µg/mL; MIC [20]: 16 µg/mL; MIC (MSSA ATCC29213): 16 µg/mL; MIC [21]: 16 µg/mL
